These are literature values, as cited in patent publication US11510960B2, “Biofilm disrupting composition for use on chronic wounds” (Whiteley Corporation Pty Ltd, priority 2016, dated 2022).

For the data set, the system named is P. aeruginosa biofilm from venous leg ulcers.

gentamicin: the “reduction in concentration in relation to the control biofilm” value (biofilm 24 hours post-debridement, antibiotic treatment) was “nine-fold”. Besides, the “average log reduction in bacteria after antibiotic treatment” value (mature (pre-study) biofilm, three patients with non-healing venous leg ulcers) was 4 log.
